Data set [1] in a line: Cytotoxicity against RAW 264.7 macrophages (MTT). As to conditions: mouse, RAW 264.7 macrophages, pH 7.2, RAW 264.7 cells. It counts as cell-based, murine. Here is the method: Murine macrophage cell line RAW 264.7 was used in this study. The cells were cultured in 75 cm^2 cell culture flasks (Corning Glass Workers, New York, NY, USA) using DMEM medium with a pH of 7.2, supplemented with 10% FBS and 1% antibiotic solution (containing 100 U/mL penicillin and 100 μg/mL streptomycin). The cells were maintained in an incubator at a temperature of 37 °C with 5% CO2. The spikes were performed after the cells reached complete confluence, characterized by the formation of a monolayer of cells around 48 h to 72 h after packaging.
In this study, we utilized the RAW 264.7 macrophages line (obtained from ATCC: code TIB-71™),human embryonic kidney cell line HEK-293 (obtained from ATCC: code CRL-1573™)and two human cancer cell cultures: the colon carcinoma cell line CaCo-2 and the adenocarcinomic human alveolar basal epithelial cell A549 (also obtained from ATCC: codesHTB-37™ and CCL-185™).These cell lines were cultured in Dulbecco’s modified Eagle medium (DMEM) from Gibco by Life Technologies (LifeTech Austria, Vienna, Austria). The growth medium was supplemented with 5% fetal bovine serum (FBS) from Gibco by Life Technologies and 1% penicillin-streptomycin obtained from Sigma-Aldrich (Vienna, Austria). The cells were maintained at 37 °C with 5% CO2 in a humidified incubator, and regular checks for mycoplasma contamination were carried out.
For experimental purposes, the cells were seeded into 96-well plates at a density of 2 × 10^4 cells/mL, with each well containing 100 µL of the cell suspension. The cells were allowed to adhere for 24 h. Subsequently, they were exposed to 100 µL of the test compounds, which were diluted in DMEM, with concentrations ranging from 2 to 600 µmol/L. The stock solutions of these compounds were prepared in water with 10% (v/v) dimethyl sulfoxide (DMSO) and stored at 4 °C.
To assess cell viability after 72 h of exposure to the compounds, we employed a 3-(4,5-dimethylthiazol-2-yl)-2,5-diphenyltetrazolium bromide (MTT)-based vitality assay kit (EZ4U, Biomedica, Vienna, Austria). Briefly, we added 20 µL of the EZ4U assay solution to each well and incubated the plates in the dark for 2 h. Subsequently, we measured the absorbance using a microplate reader at 450 nm, with 620 nm as a reference to reduce unspecific background values. For reliability, all experiments were conducted three times with triplicate samples.
The different mean concentrations for promastigotes (IC50) and macrophages (CC50) were calculated using nonlinear regression. For comparisons between groups, ANOVA analysis of variance was performed followed by Tukey’s test in a statistical program, taking the p-value < 0.05 as the maximum level of statistical significance.

A further data set deals with terminal ileum. Put plainly: Spasmolytic effect on terminal ileum (KCl contraction). As to conditions: guinea pig terminal ilea, KCl-induced contraction. Here is the method:
Guinea pigs of either sex weighing between 250 or 380 g were utilized in this study. The animals were housed in a controlled environment in an air-conditioned room, maintaining a temperature of 22 to 24 °C and a relative humidity of 50% to 60%. A 12 h light–dark cycle was maintained.
On the day of the experiments, the animals were euthanized via cervical dislocation. The heart, aorta, pulmonary artery, and ileum were surgically removed and immersed in Krebs–Henseleit solution, with the following composition: NaCl 144.9 mM, KCl 4.73 mM, CaCl2 3.2 mM, MgSO4 1.18 mM, NaHCO3 24.9 mM, KH2PO4 1.18 mM, and glucose 10 mM, with the pH maintained at 7.2–7.4. This solution was continuously aerated with a mixture of 95% O2 and 5% CO2.
Papillary muscles were isolated from the right ventricle of the heart and meticulously cleared of Purkinje fibers to prevent spontaneous activity. To ensure adequate oxygen supply, only muscles with a diameter less than 0.87 mm were used. The right atrium was also dissected for assessment of chronotropic activity. Both the aorta and pulmonary artery were cleaned and cut into 5 mm rings, while the ileum was sectioned into pieces measuring 1 to 2 cm.
One end of the dissected tissues was securely tied with silver wire for attachment to a tissue holder, while the other end was connected to a force transducer (Transbridge™, 4-Channel Transducer Amplifier, World Precision Instruments, Sarasota, FL, USA). For contractile measurements, the terminal ileum was stimulated with 60 mM KCl, and the pulmonary artery and aorta rings were exposed to a 90 mM KCl solution. Papillary muscles were electrically stimulated using an Anapulse Stimulator Model 301-T and an Isolation Unit Model 305-1 (WPI, Hamden, CT, USA) with rectangular pulses of 3 ms duration at a frequency of 1 Hz. The amplitude of the stimulation pulse was maintained at 10% above the threshold level. To optimize contractility, a constant resting tension was applied throughout the experiment: 3.9 mN for papillary muscle, 4.9 mN for terminal ileum, 10.4 mN for the right atrium, and 19.6 mN for aorta and pulmonary artery rings.
Following a 30 min control period, different concentrations of test compounds were cumulatively added to the bath solution every 45 min until a stable effect was achieved. The responses were recorded using a chart recorder (BD 112 Dual Channel, Kipp &Zonen, PO Box 507, 2624 BC, Delft, Holland) for subsequent evaluation. Stock concentrations of the test compounds were prepared using DMSO. To account for any potential DMSO effect, control experiments were conducted with the solvent alone, and the observed effects were subtracted from the responses elicited by the test compounds.

The subject of data set [2] is L. (V.) braziliensis axenic amastigotes. The experiment in a line: Antileishmanial activity on axenic amastigotes (MTT, 72 h). Format: cell-based, Leishmania (Viannia) braziliensis. Here is the method: In vitro amastigogenesis was performed by transformation from promastigotes at the stationary phase of growth to obtention axenic amastigotes. This process involved altering the culture conditions to Schneider’s medium with a pH of 5.5, supplementing them with 5% FBS, and incubating them at a temperature of 32 °C [17].
Assessment of antileishmanial activity against promastigote and amastigote axenic forms of parasites followed the method described by Rodrigues et al. and involved the following steps: L. (V.) braziliensis parasites were cultured in 96-well plates at a concentration of 1 × 10^6 parasites per well. Each well contained 100 μL of supplemented Schneider medium. Serial concentrations of the test substances, ranging from 50 to 1.56 μmol/L, were prepared. Reference drugs, meglumine antimoniate (20 to 40,000 μmol/L) and amphotericin B (0.031 to 2 μmol/L) were also prepared. These concentrations were used to assess the effects of the test substances in comparison to reference drugs. The plates were incubated in a BOD incubator at 26 °C for 72 h. After the 72 h incubation period, 10 μL of MTT (5 mg/mL) was added to each well. The plates were then incubated for an additional 4 h. At the end of the 4 h incubation, formazan crystals formed by the reduction of the MTT salt were solubilized by adding 50 μL of a 10% (w/v) sodium dodecyl sulfate (SDS) solution in distilled water. Absorbance was measured using a microplate reader at a wavelength of 540 nm (Biosystems ELx800 model, Curitiba, PR, Brazil). This measurement quantified the metabolic activity of the parasites, which is indicative of their viability and proliferation. Schneider medium containing 0.2% DMSO was used as a negative control in the tests.

Molecules are shown by their SMILES. Like-named read-outs stand apart in the source and are kept apart here.

The CC50 is the concentration that lowers cell viability or growth by half. The term EC50 denotes the concentration needed to bring the measured effect to its halfway point. Low values mean an effect from little substance, high ones a need for much substance.

With `O=C(/N=C(/NCc1ccccc1)Nc1ccc([N+](=O)[O-])cc1)c1ccccc1` [LQOF-G1, (Z)-N-benzoyl-N-benzyl-N-(4-nitrophenyl)guanidine], in data set [1], the CC50 at 72 h was 147 ± 2 µM. For the same compound, in the data set with terminal ileum, the “spasmolytic effect / contraction force in the terminal ileum” value (“spasmolytic effect / contraction force” below) is given as “decrease in contraction force”. Moreover, the EC50 in data set [2] turned out to be 4.3 ± 0.2 µM; in data set [2] (Leishmania braziliensis) it was 4.27 µM.

In data set [1], `O=C(/N=C(/NCc1ccccc1)Nc1ccc(Br)cc1)c1ccccc1` [LQOF-G2, (Z)-N-benzoyl-N-benzyl-N-(4-bromophenyl)guanidine] gave a CC50 at 72 h of 164 ± 2.9 µM. In the data set with terminal ileum, the “spasmolytic effect / contraction force” value is on record as “decrease in contraction force”. A half-maximal response in data set [2] (Leishmania braziliensis) (EC50) required 5 ± 0.8 µM.

`CC(C)(C)c1ccc(N/C(=N\C(=O)c2ccccc2)NCc2ccccc2)cc1` [LQOF-G6, (Z)-N-benzoyl-N-benzyl-N-(4-tert-butylphenyl)guanidine] had a CC50 at 72 h in data set [1] of 154 ± 2.3 µM. The same compound showed an EC50 in data set [2] (Leishmania braziliensis) of 4.3 ± 0.7 µM.

Turning to `O=C(/N=C(/NCc1ccccc1)Nc1ccc(I)cc1)c1ccccc1` [LQOF-G7, (Z)-N-benzoyl-N-benzyl-N-(4-iodophenyl)guanidine], the CC50 at 72 h in data set [1] was 183 ± 3.1 µM. In addition, the “spasmolytic effect / contraction force” value in the data set on terminal ileum is on record as “decrease in contraction force”. In addition, the EC50 in data set [2] (Leishmania braziliensis) was 6.1 µM.

As for `O=C(/N=C(/NCc1ccc(Cl)cc1Cl)Nc1ccc(Br)cc1)c1ccccc1` [LQOF-G32, (Z)-N-benzoyl-N-(2,4-di-chlorobenzyl)-N-(4-bromophenyl)guanidine], half-maximal cytotoxicity in data set [1] (CC50 at 72 h) was put at 275.9 ± 2.4 µM. Further, the “spasmolytic effect / contraction force” value in the data set on terminal ileum is listed as “decrease in contraction force”.
